In brackets after ≈: the same amount, converted by molar mass. Several values for one entry are separate records, joined by “and”; a condition that tells them apart may be missing. Identical values can stand only once. Like-named read-outs stand apart in the source and are kept apart here. Positions of bridges follow the written chain, without caps; N, C: chain ends. Residues, ends and D or L forms follow the SMILES beside them. *: point of attachment. Acm = CC(=O)NC*
What was measured:
Format in all cases: cell-based, Candida albicans
C. albicans [1] = conditions: 10 min exposure, mean ± SD, untreated control 1.8 ± 1.2%
Protocol: (§1) To analyze changes in cell size and to assess kinetics of cell death of C. albicans upon antifungal treatment flow cytometry was applied. For both experiments, 10^4 cells mL^-1 was incubated in 0.05× PDB with the desired AMP concentration for different time points. The incubation was performed in 1.5 mL reaction tubes at 30°C under continuous shaking at 800 rpm in a Thermomixer Comfort (Eppendorf). After incubation, the cells were centrifuged at 4°C with 3,000 ×g for 3 min. For cell size determination, the supernatant was removed and the cells were resuspended and fixed in PBS containing 3.7% (v/v) formaldehyde before changes in cell size were measured by plotting SSC against FSC. C. albicans that were incubated at 95°C for 120 min served as controls. Microscopic control-images were taken with a fluorescence microscope (Axioplan, Zeiss), equipped with a camera (Axiocam 503 mono, Zeiss) and excitation/emission filters (365/420 nm for blue fluorescence and 546/590 or 565/620 nm for red fluorescence, Zeiss). Image acquisition was performed with ZEN 2 microscope software (Zeiss, blue edition) and the cell area was measured with ImageJ 1.52d software ([Schindelin et al., 2012]).
For dead-cell staining, prior to fixation, the cells were incubated in the dark for 30 min at 4°C with 100 μL PBS containing 0.1 μL LIVE/DEAD^TM Fixable Far Red Dead Cell Stain (Thermo Fisher Scientific). The cells were then washed once in PBS and fixed in PBS containing 3.7% formaldehyde. Ethanol-inactivated dead C. albicans served as a positive staining control. The samples were then analyzed by FACS (FACSVerse Flow Cytometer, BD Biosciences), equipped with BD FACSuite software (v1.0.6.5230, BD Biosciences). Dead cells were detected at Excitation/Emission wavelength of 650/665 nm. Stained, live, and dead Candida cells were used as controls to discriminate populations and to set the gates.
To elucidate the AMPs candidacidal activities at an early stage and to compare their time and dose-dependent cell killing in more detail, fluorescence activated cell sorting (FACS) analysis with dead-cell staining was applied. To this end, C. albicans was exposed to 1× and 2× MIC of the respective AMPs for 10 min, stained with the dead-cell marker, and fixed with formaldehyde. With FACS analyses, 1.8 ± 1.2% dead cells were detected in the untreated control (Figure 3).

C. albicans [2] = conditions: for MIC: 24 h; for antifungal activity of scrambled peptide analog compared with original peptide: compared with Pγ, Pγ^var and Pγ^opt, respectively, data not shown
Protocol: Fungal strains used in this study are listed in Supplementary Table S1 and composition of growth media is given in Supplementary Table S2. All P. chrysogenum shaking cultures were inoculated with 2 × 10^8 conidia, in 200 mL defined minimal medium (PcMM) for protein expression or complete medium (CM) before transformation, and grown at 25°C as described ([Sonderegger et al., 2016]). For conidial suspension generation from surface cultures, P. chrysogenum was grown on PcMM agar at 25°C. C. albicans was used as PAF-sensitive model organism and was cultivated on yeast extract peptone dextrose (YPD) agar at 37°C. For growth inhibition and susceptibility assays, C. albicans was grown in 20-fold diluted potato dextrose broth (PDB, Sigma-Aldrich) at 30°C, pH 5.5 ([Huber et al., 2018]).
The MIC of all protein and peptide variants was determined on C. albicans with broth microdilution assays in 96-well microtiter plates (Nunclon Delta, Thermo Fisher Scientific). From a fresh C. albicans overnight culture on YPD agar, cells were harvested with an inoculation loop and suspended in 0.05× PDB (Sigma-Aldrich) ([Arendrup et al., 2016]). The cell number was determined with a counting chamber (Bürker) and the cell number was adjusted to 10^4 mL^-1. In each well, 10^3 cells were incubated with increasing concentrations of antifungal proteins or peptides in a final volume of 200 μL 0.05× PDB. The plates were incubated for 24 h at 30°C before the growth was determined by measuring the optical density (OD620nm) with a multi-mode microplate reader (FLUOstar Omega, BMG Labtech). The MIC was defined as the protein concentration that inhibited growth by ≥90% compared to the untreated control, which was referred as 100% growth.

C. albicans biofilms = experiment: Anti-biofilm activity, FDA fluorescence; conditions: AMP 0–40 μM for 24 h at 30°C; for concentration inhibiting cell metabolism in biofilm (FDA fluorescence): 24-h-old biofilms; for concentration with anti-biofilm (inhibitory) activity, extinction of FDA fluorescence: 1 h old (young) biofilms
Protocol: The antifungal activity against C. albicans biofilms was determined in 96-well microtiter plates (Nunclon Delta, Thermo Fisher Scientific). Cells (10^5) in 100 μL 0.05× PDB were distributed per well and plates were incubated at 37°C for up to 24 h to allow biofilm formation. After cell adherence, the microtiter plates were washed once with 0.05× PDB and the test substances were added in increasing concentrations in 100 μL 0.05× PDB per well. H2O2 served as a control for cell killing. The plates were further incubated at 30°C for 24 h. The wells were washed once with 0.05× PDB and 100 μL of FDA solution (40 μg mL^-1 in 0.05× PDB) was added to the wells. Wells containing only FDA solution (40 μg mL^-1 in 0.05× PDB) were used as blank background control. The plates were incubated for 1 h at 37°C in the dark before the fluorescence signal intensity was measured in a multi-mode microplate reader (FLUOstar Omega, BMG Labtech) with excitation and emission wavelengths of 485 and 520 nm. All experiments were prepared at least in duplicates and repeated at least twice.
Next, we analyzed the potential of the AMPs to inhibit C. albicans biofilm formation. Low susceptibility of biofilms to antifungal agents is often a limiting factor in anti-Candida treatment. To this end, C. albicans cells were distributed in 96-well microtiter plates, allowed to settle down, and to develop biofilms for 1 and 24 h. Then, planktonic cells were washed off and AMPs were added to the biofilms for another 24 h in a concentration range of 0–40 μM. The biofilms were then quantified by adding FDA to the wells. Metabolically active cells convert non-fluorescent FDA into highly fluorescent fluorescein by intracellular enzymatic activity ([Peeters et al., 2008]). The resulting fluorescence signal intensity from AMP-treated biofilms was measured and compared to untreated conditions. […] Twenty-four-hour-old biofilms, however, were resistant against PAF, PAF^var, and PAF^opt in the investigated concentration range (data not shown).

C. albicans [3] = experiment: Cell size reduction (FSC) by flow cytometry; conditions: 1× MIC and 2× MIC, 10 and 30 min
Protocol: as §1
Cell shrinkage of C. albicans is a sign for cell death when exposed to AMPs ([Lee et al., 2017]). We therefore analyzed the changes in size of AMP-treated C. albicans cells by recording the FSC with flow cytometry. To this end, C. albicans cells were analyzed after 10 and 30 min of exposure to 1× MIC and 2× MIC of AMPs (Figure 5). Heat-killed and untreated C. albicans cells served as positive and negative controls, respectively (Supplementary Figure S8). […] Pγ^var and Pγ^opt caused a very prominent decrease in the FSC value compared to the untreated cell population when applied at 2× MIC. Pγ^var and Pγ^opt reduced the average cell size after a 10-min treatment by 28 ± 13 (P = 0.022) and 18 ± 10% (P = 0.041), respectively, and after 30 min the cell size was reduced by 48 ± 8 (P < 0.001) and 37 ± 12% (P = 0.007), respectively.

C. albicans [4] = conditions: 2 h
Protocol: Fungistatic or fungicidal activities were determined by incubating C. albicans (10^4 cells mL^-1) in 0.05× PDB with proteins and peptides at 1× MIC and 2× MIC of at 30°C under continuous shaking (800 rpm) in a Thermomixer Comfort (Eppendorf). At defined time points, aliquots were taken and appropriate dilutions were plated on YPD agar in duplicates to promote growth of viable cells. Agar plates were incubated at 37°C for 24 h to count colony forming units (cfu) ([Huber et al., 2018]).
The determination of the MIC concentration is a well-established, reliable method to elucidate the growth reducing effect of an antifungal compound. […] To gain deeper insight into the antifungal mechanism of the generated protein and peptide variants, we compared them first for their fungicidal potential. In liquid culture C. albicans was exposed to 1× MIC and 2× MIC concentrations of each protein and peptide. After certain time points aliquots were taken and appropriate dilutions were spread on agar plates to allow colony formation of viable cells. The cfu were counted and compared to the untreated control, which was set to be 100%. […] The candidacidal effects were aggravated with higher protein concentrations.

[5] = 1× MIC, 0.05× PDB, 30°C, mean ± SD

## CC(=O)N[C@@H](CCCCN)C(=O)N[C@@H](Cc1ccc(O)cc1)C(=O)N[C@H](C(=O)NCC(=O)N[C@@H](CCCCN)C(=O)N[C@@H](CS)C(=O)N[C@H](C(=O)N[C@@H](CCCCN)C(=O)N[C@@H](CO)C(=O)N[C@@H](CCCCN)C(=O)N[C@@H](CC(N)=O)C(=O)N[C@@H](CCC(=O)O)C(=O)N[C@@H](CS)C(=O)N[C@@H](CCCCN)C(N)=O)[C@@H](C)O)[C@@H](C)O [Pγ] (Ac-KYTGKCTKSKNECK-NH2)
C. albicans [1]; 1× MIC
  dead cells (cells killed), FACS dead-cell staining: No significant cell-killing
C. albicans [1]; 2× MIC
  dead cells (cells killed), FACS dead-cell staining: No significant cell-killing
C. albicans [2]
  MIC: 10.0 µM (≈ 16.6 µg/mL)
C. albicans biofilms
  concentration inhibiting cell metabolism in biofilm (FDA fluorescence): no impact
  concentration with anti-biofilm (inhibitory) activity, extinction of FDA fluorescence: 40 µM
C. albicans [3]
  cell shrinkage: did not result in cell shrinkage
C. albicans [4]; [5]
  Candida cells killed (cfu vs untreated control): no killing effects
C. albicans [4]; 2
  Candida cells killed (cfu vs untreated control): 31 ± 23%

## CC(=O)N[C@@H](CCCCN)C(=O)N[C@@H](Cc1ccc(O)cc1)C(=O)N[C@H](C(=O)NCC(=O)N[C@@H](CCCCN)C(=O)N[C@H]1CSSC[C@@H](C(=O)N[C@@H](CCCCN)C(N)=O)NC(=O)[C@H](CCC(=O)O)NC(=O)[C@H](CC(N)=O)NC(=O)[C@H](CCCCN)NC(=O)[C@H](CO)NC(=O)[C@H](CCCCN)NC(=O)[C@H]([C@@H](C)O)NC1=O)[C@@H](C)O [Pγ_ox] (Ac-KYTGKCTKSKNECK-NH2; disulfide 6-13)
C. albicans [2]
  MIC: 40 µM (≈ 66.3 µg/mL)

## CC(=O)NCSC[C@H](NC(=O)[C@H](CCC(=O)O)NC(=O)[C@H](CC(N)=O)NC(=O)[C@H](CCCCN)NC(=O)[C@H](CO)NC(=O)[C@H](CCCCN)NC(=O)[C@@H](NC(=O)[C@H](CSCNC(C)=O)NC(=O)[C@H](CCCCN)NC(=O)CNC(=O)[C@@H](NC(=O)[C@H](Cc1ccc(O)cc1)NC(=O)[C@H](CCCCN)NC(C)=O)[C@@H](C)O)[C@@H](C)O)C(=O)N[C@@H](CCCCN)C(N)=O [Pγ_prot] (Ac-KYTGKC(Acm)TKSKNEC(Acm)K-NH2)
C. albicans [2]
  MIC: 40 µM (≈ 72 µg/mL)

## CTNKYSCKKGETKK [Pγ_scr, scrambled peptide analog of Pγ]
C. albicans [2]
  antifungal activity of scrambled peptide analog compared with original peptide: same antifungal activity

## Penicillium chrysogenum antifungal protein [PAF]
C. albicans [1]; 1× MIC
  dead cells (cells killed), FACS dead-cell staining: did not cause significant increase
C. albicans [1]; 2× MIC
  dead cells (cells killed), FACS dead-cell staining: did not cause significant increase
C. albicans [2]; 10^3 cells per well in 200 μL 0.05× PDB, 30°C, OD620nm, MIC = concentration inhibiting growth by ≥90% vs untreated control
  MIC: 5 µM and 5.0 µM
C. albicans biofilms
  concentration inhibiting cell metabolism in biofilm (FDA fluorescence): resistant
  concentration with anti-biofilm (inhibitory) activity, extinction of FDA fluorescence: only moderately reduced the metabolic activity
C. albicans [3]
  cell shrinkage: did not result in cell shrinkage
C. albicans [4]; [5]
  Candida cells killed (cfu vs untreated control): no detectable killing activity
C. albicans [4]; 2× MIC, 0.05× PDB, 30°C, mean ± SD
  Candida cells killed (cfu vs untreated control): 26 ± 6%

## TCKKNKKKKYGKTC [Pγ^opt_scr, scrambled peptide analog of Pγ^opt]
C. albicans [2]
  antifungal activity of scrambled peptide analog compared with original peptide: same antifungal activity

## TNGKKYKKKEYCCK [Pγ^var_scr, scrambled peptide analog of Pγ^var]
C. albicans [2]
  antifungal activity of scrambled peptide analog compared with original peptide: same antifungal activity
